ChEMBL document CHEMBL1921678, “The discovery of novel cyclohexylamide CCR2 antagonists” (Bioorg Med Chem Lett, 2011)
Active and inactive are the calls of the source. The calls are words filed in the database; no cut-off is given here.

Columns and labels:
[1] = molecular target: C-C chemokine receptor type 2 (Homo sapiens, UniProt P41597); assay: Antagonist activity at human CCR2; assay type: functional
[2] = molecular target: T1, Voltage-gated inwardly rectifying potassium channel KCNH2 (Homo sapiens, UniProt Q12809); assay: Inhibition of human ERG
T1 sequence (Q12809 whole entry): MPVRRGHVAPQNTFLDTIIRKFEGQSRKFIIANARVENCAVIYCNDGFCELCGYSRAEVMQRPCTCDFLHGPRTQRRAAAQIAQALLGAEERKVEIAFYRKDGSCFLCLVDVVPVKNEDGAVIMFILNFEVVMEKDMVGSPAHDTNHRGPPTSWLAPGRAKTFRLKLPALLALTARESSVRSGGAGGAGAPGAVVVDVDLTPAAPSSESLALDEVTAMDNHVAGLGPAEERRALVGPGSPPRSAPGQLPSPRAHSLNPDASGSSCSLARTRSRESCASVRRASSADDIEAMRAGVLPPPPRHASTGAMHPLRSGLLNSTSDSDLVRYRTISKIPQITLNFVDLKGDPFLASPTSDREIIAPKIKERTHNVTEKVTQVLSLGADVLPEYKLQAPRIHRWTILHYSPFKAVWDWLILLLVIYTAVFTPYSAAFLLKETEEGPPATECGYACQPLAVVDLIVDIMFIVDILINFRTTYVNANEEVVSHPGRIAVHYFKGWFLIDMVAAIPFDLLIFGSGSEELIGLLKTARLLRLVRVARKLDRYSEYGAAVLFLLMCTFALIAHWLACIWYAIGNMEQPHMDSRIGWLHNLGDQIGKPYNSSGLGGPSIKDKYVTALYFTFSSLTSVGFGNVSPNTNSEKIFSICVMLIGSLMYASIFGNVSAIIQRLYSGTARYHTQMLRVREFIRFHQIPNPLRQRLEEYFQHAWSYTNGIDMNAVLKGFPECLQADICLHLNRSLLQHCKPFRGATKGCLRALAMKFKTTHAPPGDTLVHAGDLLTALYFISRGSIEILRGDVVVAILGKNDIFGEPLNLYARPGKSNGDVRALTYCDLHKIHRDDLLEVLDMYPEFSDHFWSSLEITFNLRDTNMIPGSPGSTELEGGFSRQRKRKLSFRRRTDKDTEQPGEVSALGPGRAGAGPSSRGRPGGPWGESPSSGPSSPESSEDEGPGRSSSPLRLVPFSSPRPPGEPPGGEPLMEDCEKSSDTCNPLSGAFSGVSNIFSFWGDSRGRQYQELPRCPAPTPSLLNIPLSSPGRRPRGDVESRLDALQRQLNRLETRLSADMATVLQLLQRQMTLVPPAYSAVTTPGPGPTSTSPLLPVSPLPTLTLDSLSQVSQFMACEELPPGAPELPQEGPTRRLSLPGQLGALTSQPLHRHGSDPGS

[3] = molecular target: C-C chemokine receptor type 2 (Mus musculus) (UniProt P51683); assay: Antagonist activity at mouse CCR2; assay type: functional
Chain of C-C chemokine receptor type 2 (Mus musculus) (P51683 whole entry, looked up): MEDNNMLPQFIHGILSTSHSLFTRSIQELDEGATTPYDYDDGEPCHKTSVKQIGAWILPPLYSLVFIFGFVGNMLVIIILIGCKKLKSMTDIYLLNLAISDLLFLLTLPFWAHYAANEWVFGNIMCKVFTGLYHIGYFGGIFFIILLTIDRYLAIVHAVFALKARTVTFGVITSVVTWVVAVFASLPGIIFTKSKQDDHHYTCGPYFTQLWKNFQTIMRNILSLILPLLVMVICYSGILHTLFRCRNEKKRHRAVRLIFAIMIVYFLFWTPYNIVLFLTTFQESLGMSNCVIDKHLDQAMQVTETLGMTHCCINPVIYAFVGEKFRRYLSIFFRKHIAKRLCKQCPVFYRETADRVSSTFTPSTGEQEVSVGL

Mus musculus = assay: Antiinflammatory activity in human CCR2 transgenic C57BL/6 mouse assessed as reduction of thioglycollate-induced peritonitis at 30 mg/kg, po; assay type: functional, organism-based; parameters: dose 30 mg/kg
[4] = Half life in mouse at 2 mg/kg, iv; assay type: ADME, organism-based; parameters: dose 2 mg/kg, route intravenous; details: in vivo
[5] = Half life in mouse at 10 mg/kg, po; assay type: ADME, organism-based; parameters: dose 10 mg/kg, route oral; details: in vivo
Cavia porcellus [6] = assay: Cardiotoxicity in guinea pig hemodynamic model assessed as QTc at 10 mg/kg, iv; assay type: toxicity, organism-based; parameters: dose 10 mg/kg, route intravenous; details: in vivo
[7] = Volume of distribution at steady state in mouse at 2 mg/kg, iv; assay type: ADME, organism-based; parameters: dose 2 mg/kg, route intravenous; details: in vivo, read-out: Vdss
Cavia porcellus [8] = assay: Cardiotoxicity in guinea pig hemodynamic model assessed as PR interval at 10 mg/kg, iv; assay type: toxicity, organism-based; parameters: dose 10 mg/kg, route intravenous; details: in vivo
[9] = Oral bioavailability in mouse at 10 mg/kg; assay type: ADME, organism-based; details: in vivo
[10] = Cmax in mouse at 10 mg/kg, po; assay type: ADME, organism-based; parameters: dose 10 mg/kg, route oral; details: in vivo
[11] = AUC in mouse at 10 mg/kg, po; assay type: ADME, organism-based; parameters: dose 10 mg/kg, route oral; details: plasma
Cavia porcellus [12] = assay: Cardiotoxicity in guinea pig hemodynamic model assessed as QRS duration at 10 mg/kg, iv; assay type: toxicity, organism-based; parameters: dose 10 mg/kg, route intravenous; details: in vivo
[13] = molecular target: T1, Voltage-gated inwardly rectifying potassium channel KCNH2; assay: Binding affinity to human ERG
[14] = Initial plasma concentration in mouse at 2 mg/kg, iv; assay type: ADME, organism-based; parameters: dose 2 mg/kg, route intravenous
[15] = Clearance in mouse at 2 mg/kg, iv; assay type: ADME, organism-based; parameters: dose 2 mg/kg, route intravenous; details: in vivo
[16] = molecular target: T1, Voltage-gated inwardly rectifying potassium channel KCNH2; assay: Inhibition of human ERG by patch clamp assay
Cavia porcellus [17] = assay: Cardiotoxicity in guinea pig hemodynamic model assessed as mean arterial pressure at 10 mg/kg, iv; assay type: toxicity, organism-based, Artery; parameters: dose 10 mg/kg, route intravenous; details: in vivo
Cavia porcellus [18] = assay: Cardiotoxicity in guinea pig hemodynamic model assessed as heart rate at 10 mg/kg, iv; assay type: toxicity, organism-based; parameters: dose 10 mg/kg, route intravenous; details: in vivo
Cavia porcellus [19] = assay: Cardiotoxicity in guinea pig hemodynamic model assessed as QT interval at 10 mg/kg, iv; assay type: toxicity, organism-based; parameters: dose 10 mg/kg, route intravenous; details: in vivo

Chain of C-C chemokine receptor type 2 (P41597 whole entry): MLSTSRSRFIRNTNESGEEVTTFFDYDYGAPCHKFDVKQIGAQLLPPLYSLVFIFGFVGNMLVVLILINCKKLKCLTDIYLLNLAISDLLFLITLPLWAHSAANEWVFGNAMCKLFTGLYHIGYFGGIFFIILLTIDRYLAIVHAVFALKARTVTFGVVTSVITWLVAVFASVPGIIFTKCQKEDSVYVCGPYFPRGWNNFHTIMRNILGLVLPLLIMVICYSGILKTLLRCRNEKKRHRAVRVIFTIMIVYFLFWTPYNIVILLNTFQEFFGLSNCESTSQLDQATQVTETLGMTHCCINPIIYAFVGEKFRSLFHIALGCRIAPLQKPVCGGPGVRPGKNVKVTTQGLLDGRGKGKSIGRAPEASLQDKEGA

Row | Compound | IC50 [1] [nM] | INH [2] [µM] | other results
1 | NC(=O)C(NC1CCC(c2c[nH]c3ccccc23)CC1)C1CCN(C(=O)Nc2ccccc2)CC1 (centres undefined) | 9570 | 14.784 | 
2 | NC(=O)C(NC1CCC(c2c[nH]c3cccnc23)CC1)C1CCN(C(=O)/C=C/c2cc(F)c(F)c(F)c2)CC1 (centres undefined) | 35 | 6.3 | 
3 | NC(=O)C(NC1CCC(c2ccccc2)C1)C1CCN(C(=O)/C=C/c2cc(F)c(F)c(F)c2)CC1 (centres undefined) | 1300 |  | 
4 | NC(=O)C(NC1CCC(c2c[nH]c3ccccc23)CC1)C1CN(C(=O)/C=C/c2cc(F)c(F)c(F)c2)C1 (centres undefined) | > 25000 |  | 
5 | CC(C)C1CCC(NC(C(N)=O)C2CCN(C(=O)/C=C/c3cc(F)c(F)c(F)c3)CC2)CC1 (centres undefined) | 15800 | 6.2 | 
6 | NC(=O)C(NC1CCC(c2c[nH]c3ncccc23)CC1)C1CCN(C(=O)/C=C/c2cc(F)c(F)c(F)c2)CC1 (centres undefined) |  | 8.3 | 
7 | COC(=O)C(NC1CCC(c2c[nH]c3ccccc23)CC1)C1CCN(C(=O)/C=C/c2cc(F)c(F)c(F)c2)CC1 (centres undefined) | 900 | 2.2 | 
8 | NC(=O)C(NC1CCC(c2c[nH]c3ccccc23)CC1)C1CCN(C(=O)/C=C/c2cc(F)cc(F)c2)CC1 (racemic) [listing 1 of 2 here] |  |  | inhibition [3]: inactive; Activity (Mus musculus): Active
9 | O=C(O)C(NC1CCC(c2c[nH]c3ccccc23)CC1)C1CCN(C(=O)/C=C/c2cc(F)c(F)c(F)c2)CC1 (centres undefined) | 50 | 31 | 
10 | NC(=O)C(NC1Cc2ccccc2C1)C1CCN(C(=O)/C=C/c2cc(F)c(F)c(F)c2)CC1 (centres undefined) | 1400 |  | 
11 | NC(=O)C(NC1CCC(c2c[nH]c3ccccc23)CC1)C1CCN(C(=O)/C=C/c2ccc(F)cc2)CC1 (centres undefined) | 36 | 2.02 | 
12 | NC(=O)C(NC1CCC(c2c[nH]c3ccccc23)CC1)C1CCN(C(=O)/C=C/c2ccc(Cl)cc2)CC1 (centres undefined) |  | 0.87 | 
13 | NC(=O)C(NC1CCP(=O)(c2ccccc2)CC1)C1CCN(C(=O)/C=C/c2cc(F)c(F)c(F)c2)CC1 (centres undefined) | > 25000 |  | 
14 | NC(=O)C(NC1CCC(c2c[nH]c3ccccc23)CC1)C1CCN(C(=O)/C=C/c2ccc(F)c(F)c2)CC1 (centres undefined) | 38 | 1.714 | 
15 | NC(=O)C(NC1CCC(c2c[nH]c3ccccc23)CC1)C1CCN(C(=O)/C=C/c2cccc(F)c2)CC1 (centres undefined) | 64 | 2.076 | 
16 | NC(=O)C(NC1CCC(c2c[nH]c3ccccc23)CC1)C1CCN(C(=O)/C=C/c2ccccc2)CC1 (centres undefined) |  | 7.35 | 
17 | O=C(/C=C/c1cc(F)c(F)c(F)c1)N1CCC(C(CO)NC2CCC(c3c[nH]c4ccccc34)CC2)CC1 (centres undefined) | 9200 | 0.52 | 
18 | CS(=O)(=O)c1ccc(/C=C/C(=O)N2CCC(C(NC3CCC(c4c[nH]c5ccccc45)CC3)C(N)=O)CC2)cc1 (centres undefined) | 11600 | > 50 | 
19 | NC(=O)C(NC1CCC(c2c[nH]c3ccccc23)CC1)C1CCN(Cc2ccccc2)CC1 (centres undefined) | > 25000 | 1.769 | 
20 | CNC(=O)C(NC1CCC(c2c[nH]c3ccccc23)CC1)C1CCN(C(=O)/C=C/c2cc(F)c(F)c(F)c2)CC1 (centres undefined) |  | 5.4 | 
21 | COc1ccc(C2CCC(NC(C(N)=O)C3CCN(C(=O)/C=C/c4cc(F)c(F)c(F)c4)CC3)CC2)cn1 (centres undefined) |  | 11.7 | 
22 | NC(=O)C(NC1CCc2ccccc21)C1CCN(C(=O)/C=C/c2cc(F)c(F)c(F)c2)CC1 (centres undefined) | 2300 |  | 
23 | NC(=O)C(NC1CCC(c2c[nH]c3ccccc23)CC1)C1CCN(C(=O)c2ccccc2)CC1 (centres undefined) | > 25000 | 5.471 | 
24 | NC(=O)C(NC1CCC(c2c[nH]c3ccccc23)CC1)C1CCN(C(=O)/C=C/c2ccc(C(F)(F)F)cc2)CC1 (centres undefined) |  | 1.08 | 

Row | Compound | IC50 [1] [nM] | INH [2] [µM] | other results
25 | NC(=O)C(NC1CCC(c2c[nH]c3ccccc23)CC1)C1CCN(C(=O)CCc2ccccc2)CC1 (centres undefined) | > 25000 |  | 
26 | NC(=O)C(NC1CCC(C2CNc3ccccc32)CC1)C1CCN(C(=O)/C=C/c2cc(F)c(F)c(F)c2)CC1 (centres undefined) | 950 | 4.2 | 
27 | NC(=O)C(NC1CCC(c2c[nH]c3ccccc23)CC1)C1CCN(C(=O)/C=C/c2cc(F)c(F)c(F)c2)CC1 (centres undefined) |  | 3.3 | 
28 | O=C1NC2(CCC(c3c[nH]c4ccccc34)CC2)NC1C1CCN(C(=O)/C=C/c2cc(F)c(F)c(F)c2)CC1 (centres undefined) | 5200 |  | 
29 | CN(C)C(=O)C(NC1CCC(c2c[nH]c3ccccc23)CC1)C1CCN(C(=O)/C=C/c2cc(F)c(F)c(F)c2)CC1 (centres undefined) |  | 4.4 | 
30 | CN(C)c1ccc(/C=C/C(=O)N2CCC(C(NC3CCC(c4c[nH]c5ccccc45)CC3)C(N)=O)CC2)cc1 (centres undefined) | 1890 | > 50 | 
31 | NC(=O)C(NC1CCC(c2c[nH]c3ccccc23)CC1)C1CCN(C(=O)/C=C/c2ccc(OC(F)(F)F)cc2)CC1 (centres undefined) |  | 1.39 | 
32 | NC(=O)C(NC1CCC(c2c[nH]c3ccccc23)CC1)C1CCN(C(=O)/C=C/c2c(F)cccc2F)CC1 (centres undefined) | > 25000 | 3.734 | 
33 | NC(=O)C(NC1CCC(c2c[nH]c3ccncc23)CC1)C1CCN(C(=O)/C=C/c2cc(F)c(F)c(F)c2)CC1 (centres undefined) | 83 | 0.97 | 
34 | NC(=O)C(NC1CCC(c2c[nH]c3ccccc23)CC1)C1CCN(C(=O)Cc2ccccc2)CC1 (centres undefined) | > 25000 | 17.636 | 
35 | CC(NC1CCC(c2c[nH]c3ccccc23)CC1)C1CCN(C(=O)/C=C/c2cc(F)c(F)c(F)c2)CC1 (centres undefined) | 8600 | 0.29 | 
36 | NC(=O)C(NC1CCC(c2c[nH]c3ccccc23)CC1)C1CCN(C(=O)C2CC2c2ccccc2)CC1 (mixture of isomers) | 1300 |  | 
37 | NC(=O)C(NC1CCC(c2c[nH]c3cnccc23)CC1)C1CCN(C(=O)/C=C/c2cc(F)c(F)c(F)c2)CC1 (centres undefined) | 2200 | < 0.2 | 
38 | O=C(/C=C/c1cc(F)c(F)c(F)c1)N1CCC(CNC2CCC(c3c[nH]c4ccccc34)CC2)CC1 (centres undefined) | 25000 |  | 
39 | NC(=O)C(NC1CCC(c2c[nH]c3ccccc23)CC1)C1CCN(C(=O)/C=C/c2cc(F)cc(F)c2)CC1 (single isomer, unassigned; (-)) |  | 20.375 | 
40 | NC(=O)C(NC1CCC(c2c[nH]c3ccccc23)CC1)C1CCN(C(=O)/C=C/c2ccccc2F)CC1 (centres undefined) |  | 4.128 | 
41 | NC(=O)C(NC1CCC(c2c[nH]c3ccccc23)CC1)C1CCN(C(=O)/C=C/c2cc(F)cc(F)c2)CC1 (racemic) [listing 2 of 2 here] |  | 4.906 | half-life [4]: 1.9 h; half-life [5]: 2.4 h; Activity (Cavia porcellus [6]): Non-toxic; Vd [7]: 3.71 L/kg; Activity (Cavia porcellus [8]): Non-toxic; bioavailability [9]: 50%; Cmax [10]: 531 ng/mL; AUC [11]: 2420 ng·h/mL; Activity (Cavia porcellus [12]): Non-toxic; INH [13]: 8 µM; C0 [14]: 1020 ng/mL; clearance [15]: 31 mL/min/kg; INH [16]: 600 nM; Activity (Cavia porcellus [17]): Non-toxic; Activity (Cavia porcellus [18]): Non-toxic; Activity (Cavia porcellus [19]): Non-toxic
42 | O=C(O)C(C1CCN(C(=O)/C=C/c2cc(F)c(F)c(F)c2)CC1)N1CCC(c2c[nH]c3ccccc23)CC1 (centres undefined) |  | 1.5 | 
43 | NC(=O)C(NC1CCC(c2ccccc2)CC1)C1CCN(C(=O)/C=C/c2cc(F)c(F)c(F)c2)CC1 (centres undefined) | 6000 | 3.4 | 
44 | NC(=O)C(NC1CCC(c2c[nH]c3ccccc23)CC1)C1CCN(C(=O)/C=C\c2cc(F)cc(F)c2)CC1 (cis isomer) |  | 2.2 | 
45 | NC(=O)C(NC1CCC(c2c[nH]c3ccccc23)CC1)C1CCN(C(=O)/C=C/c2cc(F)cc(F)c2)CC1 (trans isomer) |  | 6.6 | 
46 | CN(C1CCC(c2c[nH]c3ccccc23)CC1)C(C(=O)O)C1CCN(C(=O)/C=C/c2cc(F)c(F)c(F)c2)CC1 (centres undefined) | 8100 |  | 
47 | O=C(NO)C(NC1CCC(c2c[nH]c3ccccc23)CC1)C1CCN(C(=O)/C=C/c2cc(F)c(F)c(F)c2)CC1 (centres undefined) |  | 41 | 
